From patent publication US6689883B1, “Substituted pyridines and pyridazines with angiogenesis inhibiting activity” (Bayer Pharmaceuticals Corporation, priority 1999, dated 2004)
pIC50: −log10 of the molar value.

Target: T1, cytosolic kinase domain of KDR kinase (Homo sapiens, UniProt P35968)
T1 construct: The cytosolic kinase domain of KDR kinase was expressed as a 6His fusion protein in Sf9 insect cells; 6His; made in house; host or cells: Sf9 insect cells
Test: KDR Assay (ELISA, poly(Glu4;Tyr1) phosphorylation)
Assay type: biochemical
Conditions: 3.3 μM ATP, 60 minutes at room temperature
Procedure: The cytosolic kinase domain of KDR kinase was expressed as a 6His fusion protein in Sf9 insect cells. The KDR kinase domain fusion protein was purified over a Ni++ chelating column. Ninety-six well ELISA plates were coated with 5 μg poly(Glu4;Tyr1) (Sigma Chemical Co., St Louis, Mo.) in 100 μl HEPES buffer (20 mM HEPES, pH 7.5, 150 mM NaCl, 0.02% Thimerosal) at 4° overnight. Before use, the plate was washed with HEPES, NaCl buffer and the plates were blocked with 1% BSA, 0.1% Tween 20 in HEPES, NaCl buffer.
Test compounds were serially diluted in 100% DMSO from 4 mM to 0.12 μM in half-log dilutions. These dilutions were further diluted twenty fold in H2O to obtain compound solutions in 5% DMSO. Following loading of the assay plate with 85 μl of assay buffer (20 mM HEPES, pH 7.5, 100 mM KCl, 10 mM MgCl2, 3 mM MnCl2, 0.05% glycerol, 0.005% Triton X-100, 1 mM-mercaptoethanol, with or without 3.3 μM ATP), 5 μl of the diluted compounds were added to a final assay volume of 100 μl. Final concentrations were between 10 μM, and 0.3 nM in 0.25% DMSO. The assay was initiated by the addition of 10 μl (30 ng) of KDR kinase domain.
The assay was incubated with test compound or vehicle alone with gentle agitation at room temperature for 60 minutes. The wells were washed and phosphotyrosines (PY) were probed with an anti-phosphotyrosine (PY), mAb clone 4G10 (Upstate Biotechnology, Lake Placid, N.Y.). PY/anti-PY complexes were detected with an anti-mouse IgG/HRP conjugate (Amersham International plc, Buckinghamshire, England). Phosphotyrosine was quantitated by incubating with 100 μl 3,3′,5,5′tetramethylbenzidine solution (Kirkegaard and Perry, TMB Microwell 1 Component peroxidase substrate). Color development was arrested by the addition of 100 μl 1% HCl-based stop solution (Kirkegaard and Perry, TMB 1 Component Stop Solution).
Optical densities were determined spectrophotometrically at 450 nm in a 96-well plate reader, SpectraMax 250 (Molecular Devices). Background (no ATP in assay) OD values were subtracted from all ODs and the percent inhibition was calculated according to the equation: [formula]

T1 sequence (P35968 834-1162 limits assumed): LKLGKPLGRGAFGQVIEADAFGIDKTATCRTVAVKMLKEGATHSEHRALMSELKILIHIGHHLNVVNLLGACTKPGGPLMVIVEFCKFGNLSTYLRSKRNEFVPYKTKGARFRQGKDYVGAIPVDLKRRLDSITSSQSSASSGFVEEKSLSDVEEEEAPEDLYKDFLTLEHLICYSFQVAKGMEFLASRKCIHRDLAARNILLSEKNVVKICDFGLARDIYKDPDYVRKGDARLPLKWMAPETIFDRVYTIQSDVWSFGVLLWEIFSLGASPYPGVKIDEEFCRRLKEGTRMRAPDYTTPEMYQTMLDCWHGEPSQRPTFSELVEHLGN

| SMILES | pIC50 |
| --- | --- |
| Clc1ccc(Nc2ncc(Sc3ccncc3)c3ccccc23)cc1 [Example 1, 1-(4-chlorophenylamino)-4-(4-pyridylthio)isoquinoline] | ≥ 7.00 |
| Clc1ccc(Nc2ncc(Cc3ccncc3)c3ccccc23)cc1 [Example 4, 1-(4-chlorophenylamino)-4-(4-pyridylmethyl)isoquinoline] | ≥ 7.00 |
| Cc1ccc(Nc2ncc(Cc3ccncc3)c3ccccc23)cc1F [Example 7, 1-(3-fluoro-4-methylphenylamino)-4-(4-pyridylmethyl)-isoquinoline] | 6.00 to 7.00 |
| NC(=O)c1cc(Cc2cnc(Nc3ccc(Cl)cc3)c3ccccc23)ccn1 [Example 12, 1-(4-chlorophenylamino)-4-(2-aminocarbonyl-4-pyridylmethyl)isoquinoline] | ≥ 7.00 |
| CNC(=O)c1cc(Cc2cnc(Nc3ccc(Cl)cc3)c3ccccc23)ccn1 [Example 13, 1-(4-chlorophenylamino)-4-(2-methylaminocarbonyl-4-pyridylmethyl)isoquinoline] | ≥ 7.00 |
| NC(=O)c1cc(COc2nnc(Nc3ccc(Cl)cc3)c3ccoc23)ccn1 [Example 16, 4-(4-chlorophenylamino)-7-(2-aminocarbonyl-4-pyridylmethoxy)furo-[2,3-d]pyridazine] | ≥ 7.00 |
| Clc1ccc(Nc2nnc(Nc3ccc4ncsc4c3)c3sccc23)cc1 [Example 17, 4-(4-chlorophenylamino)-7-(benzothiazol-6-ylamino)thieno[2,3-d]pyridazine] | ≥ 7.00 |
| Brc1ccc2c(c1)CCN2c1nnc(OCc2ccncc2)c2occc12 [Example 19, 4-(5-bromoindolin-1-yl)-7-(4-pyridylmethoxy)furo[2,3-d]pyridazine] | ≥ 7.00 |
| CNC(=O)c1cc(COc2nnc(Nc3ccc(OC)cc3)c3ccoc23)ccn1 [Example 20, 4-(4-methoxyphenylamino)-7-(2-methylaminocarbonyl-4-pyridylmethoxy)furo-[2,3-d]pyridazine] | ≥ 7.00 |
| COc1ccc(Nc2nnc(OCc3ccnc(C(N)=O)c3)c3occc23)cc1 [Example 22, 4-(4-methoxyphenylamino)-7-(2-aminocarbonyl4-pyridylmethoxy)furo-[2,3-d]pyridazine] | ≥ 7.00 |
| c1cc2c(Nc3ccc4nn[nH]c4c3)nnc(Nc3ccc4nn[nH]c4c3)c2s1 [Example 26] | < 6.00 |
| c1cc2c(Nc3ccc4nn[nH]c4c3)nnc(Nc3ccc4nn[nH]c4c3)c2o1 [Example 29] | < 6.00 |
| c1cc2c(Nc3ccc4[nH]ncc4c3)nnc(Nc3ccc4[nH]ncc4c3)c2o1 [Example 30] | < 6.00 |
| c1nc2c(Nc3ccc4nn[nH]c4c3)nnc(Nc3ccc4nn[nH]c4c3)c2[nH]1 [Example 31] | < 6.00 |
| c1nc2c(Nc3ccc4[nH]ncc4c3)nnc(Nc3ccc4[nH]ncc4c3)c2[nH]1 [Example 32] | < 6.00 |
| c1nc2c(Nc3ccc4ncsc4c3)nnc(Nc3ccc4ncsc4c3)c2[nH]1 [Example 33] | < 6.00 |
| CNC(=O)c1cc(COc2nnc(Nc3ccc(F)cc3)c3ccoc23)ccn1 [Example 37] | ≥ 7.00 |
| CNC(=O)c1cc(COc2nnc(Nc3ccc(Br)cc3)c3ccoc23)ccn1 [Example 38] | ≥ 7.00 |
| CNC(=O)c1cc(COc2nnc(Nc3ccc(C)cc3)c3ccoc23)ccn1 [Example 39] | ≥ 7.00 |

| SMILES | pIC50 |
| --- | --- |
| CNC(=O)c1cc(COc2nnc(Nc3cccc(C)c3)c3ccoc23)ccn1 [Example 40] | ≥ 7.00 |
| CNC(=O)c1cc(COc2nnc(Nc3ccc(N(C)C)cc3)c3ccoc23)ccn1 [Example 41] | < 6.00 |
| CNC(=O)c1cc(COc2nnc(Nc3ccc(C(F)(F)F)cc3)c3ccoc23)ccn1 [Example 42] | ≥ 7.00 |
| CNC(=O)c1cc(COc2nnc(Nc3ccc(OC(F)(F)F)cc3)c3ccoc23)ccn1 [Example 43] | ≥ 7.00 |
| CNC(=O)c1cc(COc2nnc(Nc3ccc(OC)c(Cl)c3)c3ccoc23)ccn1 [Example 44] | ≥ 7.00 |
| CNC(=O)c1cc(COc2nnc(Nc3ccc(F)c(F)c3)c3ccoc23)ccn1 [Example 47] | ≥ 7.00 |
| CNC(=O)c1cc(COc2nnc(Nc3ccc4c(c3)CCC4)c3ccoc23)ccn1 [Example 49] | ≥ 7.00 |
| CNC(=O)c1cc(COc2nnc(Nc3cccc(OC)c3)c3ccoc23)ccn1 [Example 51] | ≥ 7.00 |
| CNC(=O)c1cc(COc2nnc(Nc3ccc4c(c3)OCO4)c3ccoc23)ccn1 [Example 52] | ≥ 7.00 |
| CNC(=O)c1cc(COc2nnc(Nc3ccc(Cl)c(Cl)c3)c3ccoc23)ccn1 [Example 53] | ≥ 7.00 |
| CNC(=O)c1cc(COc2nnc(Nc3cc(C)cc(C)c3)c3ccoc23)ccn1 [Example 54] | ≥ 7.00 |
| COc1ccc(Nc2nnc(OCc3ccncc3)c3occc23)cc1 [Example 56] | ≥ 7.00 |
| CNC(=O)c1cc(COc2nnc(Nc3ccc(O)cc3)c3ccoc23)ccn1 [Example 57] | ≥ 7.00 |
| CNC(=O)c1cc(COc2nnc(Nc3ccccc3)c3ccoc23)ccn1 [Example 59] | ≥ 7.00 |
| CNC(=O)c1cc(COc2nnc(Nc3ccc(C)c(OC)c3)c3ccoc23)ccn1 [Example 60] | ≥ 7.00 |
| CNC(=O)c1cc(COc2nnc(Nc3ccc4sc(C)nc4c3)c3ccoc23)ccn1 [Example 62] | ≥ 7.00 |
| CNC(=O)c1cc(COc2nnc(Nc3ccc4c(c3)CCO4)c3ccoc23)ccn1 [Example 65] | ≥ 7.00 |
| CNC(=O)c1cc(COc2nnc(Nc3ccc4c(c3)CCO4)c3ccsc23)ccn1 [Example 66] | ≥ 7.00 |

Now from value to molecule:

| pIC50 | SMILES |
| --- | --- |
| ≥ 7.00 | CNC(=O)c1cc(COc2nnc(Nc3cccc(C)c3)c3ccsc23)ccn1 [Example 68] |
| ≥ 7.00 | CNC(=O)c1cc(COc2nnc(Nc3ccc(OC)cc3)c3ccsc23)ccn1 [Example 69] |
| ≥ 7.00 | CNC(=O)c1cc(COc2nnc(Nc3ccc(OC(F)(F)F)cc3)c3ccsc23)ccn1 [Example 70] |
| ≥ 7.00 | CNC(=O)c1cc(COc2nnc(Nc3ccc(C(F)(F)F)cc3)c3ccsc23)ccn1 [Example 71] |
| ≥ 7.00 | CNC(=O)c1cc(COc2nnc(Nc3ccc(Br)cc3)c3ccsc23)ccn1 [Example 72] |
| ≥ 7.00 | CNC(=O)c1cc(COc2nnc(Nc3ccc4c(c3)CCC4)c3ccsc23)ccn1 [Example 73] |
| ≥ 7.00 | CNC(=O)c1cc(COc2nnc(Nc3ccc4c(c3)OCO4)c3ccsc23)ccn1 [Example 74] |
| ≥ 7.00 | c1nc2ccc(Nc3nnc(Nc4ccc5ncsc5c4)c4sccc34)cc2s1 [Example 75] |
| ≥ 7.00 | Cc1ccc(Nc2nnc(Nc3ccc4ncsc4c3)c3sccc23)c(C)c1 [Example 78] |
| < 6.00 | COc1cc(Nc2nnc(Nc3ccc4ncsc4c3)c3sccc23)cc(OC)c1OC [Example 80] |
| < 6.00 | CN(C)C(=O)c1cc(COc2nnc(Nc3ccc(Cl)cc3)c3ccoc23)ccn1 [Example 81] |
| ≥ 7.00 | O=C(NC1CC1)c1cc(COc2nnc(Nc3ccc(Cl)cc3)c3ccoc23)ccn1 [Example 82B] |
| ≥ 7.00 | O=C(NCCO)c1cc(COc2nnc(Nc3ccc(Cl)cc3)c3ccoc23)ccn1 [Example 82C] |
| ≥ 7.00 | CCNC(=O)c1cc(COc2nnc(Nc3ccc(Cl)cc3)c3ccoc23)ccn1 [Example 82D] |
| < 6.00 | c1ccc2c(Nc3ccc4nn[nH]c4c3)nnc(Nc3ccc4nn[nH]c4c3)c2c1 [Example 94] |
| ≥ 7.00 | Brc1ccc2c(c1)CCN2c1nnc(Nc2ccc3ncsc3c2)c2ccccc12 [Example 97] |
| ≥ 7.00 | FC1(F)Oc2ccc(Nc3nnc(Nc4ccc5ncsc5c4)c4ccccc34)cc2O1 [Example 98] |
